Tested on: 941728-121-R-J1-PDC complex spheroid viability
Experiment: Anticancer human tumor 941728-121-R-J1-PDC patient-derived lung adenocarcinoma cell line growth inhibition [RAS]
Settings: for IC50: curve of first compound; for viability, T/C: stronger effect = lower value
Excerpt: RAS pathway inhibitors in Combinations in Complex Spheroids
A high-throughput screen of multi-cell type tumor spheroids was designed to identify active combinations of RAS pathway inhibitors and targeted small molecules. Complex spheroids include a stromal component modeled by human endothelial cells (HUVEC) and fibroblasts modeled by human mesenchymal stem cells (MSCs). The concentration ranges selected for each drug and investigational agent were based upon clinically achievable concentrations if the clinical Cmax of the agent was known.
Compounds. The drugs and investigational agents: abemaciclib (NSC768073), cobimetinib (NSC768068), divarasib (GDC6063, NSC841802), docetaxel (NSC628503), GDC-1971 (RLY-1971, NSC841576), gemcitabine (NSC613327), inavolisib (NSC800729), ipatasertib (NSC767898), KB-0742 (NSC834161), MRTX-1133 (NSC836407), osimertinib (NSC779217), RMC-4630 (NSC839698), RMC-6236 (NSC851965), RMC-6291 (NSC852671), Ro-3306 (NSC812927), sapanisertib (NSC764658), SN-38 (NSC673596), staurosporine (NSC755774), SY5609 (NSC837396), and tovorafenib (DAY101, NSC766906), were obtained from the National Cancer Institute (NCI) Developmental Therapeutics Program Chemical Repository. The FDA-approved anticancer drug set is available from the NCI Developmental Therapeutics Program. […] The stock solutions were prepared in dimethyl sulfoxide (DMSO, Sigma-Aldrich, St. Louis, MO, cat. D2650) at 800-fold the tested concentration and stored at -70 degrees C prior to their use. All drugs and investigational agents were tested over a range starting from a high concentration at or near the clinical Cmax and decreasing in half-log increments. If the clinical Cmax for an agent had not been determined, the highest concentration tested was 10 microM.
Cell Culture. All cells were maintained in an incubator at 37 degrees C and 5% CO2 with 95% humidity. The PDC lines were cultured according to standard operating procedures established by the NCI PDMR. All PDCs were thawed and cultured in Matrigel-coated flasks prepared with a working solution of 1X Ham's F-12 nutrient mix, without supplementation (Invitrogen, Waltham, MA, cat. 11765054), 100 U/mL penicillin-streptomycin (Invitrogen, cat. 15140122), and 2.5% Matrigel (Corning Inc., Corning, NY, cat. 354248) for the first three passages. The 362531-283-R-J2-PDC and 782815-120-R-J1-PDC lines were cultured in 6C/Colon 1B media, which includes advanced DMEM/F-12 (Thermo Fisher Scientific, cat. 12634028), 10 mM HEPES (Thermo Fisher Scientific, cat. 15630080), 1X GlutaMAX supplement (Thermo Fisher Scientific, cat. 35050061), 0.1 mg/mL primocin (InvivoGen, San Diego, CA, cat. ant-pm-2), 10% defined fetal bovine serum, heat inactivated (HyClone Laboratories Inc., Logan, UT, cat. SH30070.03HI), 50% L-WRN conditioned media (ATCC, cat. CRL-3276), 1.25 mM N-Acetyl-L-cysteine (Sigma-Aldrich, cat. A9165), 10 mM nicotinamide (Sigma-Aldrich, cat. N0636), 1X B-27 supplement (Thermo Fisher Scientific, cat. 17504044), 1X N-2 supplement (Thermo Fisher Scientific, cat. 17502048), 50 ng/mL human EGF (Thermo Fisher Scientific, cat. PHG0311), and 10 microM Y-27632 dihydrochloride (Tocris Bioscience, cat. 1254). The K12877-001-R-J1-PDC line was cultured in 6I media, which includes all 6C/Colon 1B media plus 10 ng/mL human FGF-10 (PeproTech, cat. 100-26), 1 ng/mL human FGF-2 (PeproTech, cat. 100-18B), 1 µM prostaglandin E2 (Tocris Bioscience, cat. 2296), […] hydrocortisone (Sigma-Aldrich, cat. H4001), and […] bovine insulin (Sigma-Aldrich, cat. I6634). The K86415-001-R-J1-PDC line was cultured in 6D media, which includes all 6C/Colon 1B media components minus the L-WRN conditioned media. The 485176-168-R4-J1-PDC was cultured in PANC media, which includes all 6C/Colon 1B media plus 100 ng/mL human FGF-10 (PeproTech, cat. 100-26), 500 nM SB-431542 (Selleckchem, cat. S1067), and 10 nM gastrin (Tocris Bioscience, cat. 3006). […]

[1] = second compound 0.0316 µM, first compound 0.0316 µM
[2] = second compound 0.0316 µM, first compound 0.1 µM
[3] = second compound 0.0316 µM, first compound 0.316 µM
[4] = second compound 0.0316 µM, first compound 1 µM
[5] = second compound 0.1 µM, first compound 0.0316 µM
[6] = second compound 0.1 µM, first compound 0.1 µM
[7] = second compound 0.1 µM, first compound 0.316 µM
[8] = second compound 0.1 µM, first compound 1 µM
[9] = second compound 0.316 µM, first compound 0.0316 µM
[10] = second compound 0.316 µM, first compound 0.1 µM
[11] = second compound 0.316 µM, first compound 0.316 µM
[12] = second compound 0.316 µM, first compound 1 µM
[13] = second compound 1 µM, first compound 0.0316 µM
[14] = second compound 1 µM, first compound 0.1 µM
[15] = second compound 1 µM, first compound 0.316 µM
[16] = second compound 1 µM, first compound 1 µM
[17] = second compound 3.16 µM, first compound 0.0316 µM
[18] = second compound 3.16 µM, first compound 0.1 µM
[19] = second compound 3.16 µM, first compound 0.316 µM
[20] = second compound 3.16 µM, first compound 1 µM
[21] = second compound 10 µM, first compound 0.0316 µM
[22] = second compound 10 µM, first compound 0.1 µM
[23] = second compound 10 µM, first compound 0.316 µM
[24] = second compound 10 µM, first compound 1 µM
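Also: spheroids exposed to compounds for 7 days before readout.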
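For viability, T/C in this document: 100% = DMSO vehicle control viability.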

CC(Nc1ccc2c(c1)OCCn1cc(N3C(=O)OCC3C(F)F)nc1-2)C(N)=O (centres undefined) + C#Cc1c(F)ccc2cc(O)cc(-c3ncc4c(N5CC6CCC(C5)N6)nc(OCC56CCCN5CC(F)C6)nc4c3F)c12
IC50 (second compound 0.0316 µM): 75.7 nM | IC50 (second compound 0.1 µM): 49.4 nM | IC50 (second compound 0.316 µM): < 31.6 nM | IC50 (second compound 1 µM): < 31.6 nM | IC50 (second compound 3.16 µM): < 31.6 nM | IC50 (second compound 10 µM): < 31.6 nM | viability, T/C [1]: 64.5% | viability, T/C [2]: 44.4% | viability, T/C [3]: 37% | viability, T/C [4]: 35.9% | viability, T/C (second compound 0.0316 µM, first compound 3.16 µM): 29% | viability, T/C (second compound 0.0316 µM, first compound 10 µM): 29.6% | viability, T/C [5]: 56.9% | viability, T/C [6]: 39.5% | viability, T/C [7]: 33.2% | viability, T/C [8]: 28.1% | viability, T/C (second compound 0.1 µM, first compound 3.16 µM): 31.3% | viability, T/C (second compound 0.1 µM, first compound 10 µM): 32.5% | viability, T/C [9]: 40.3% | viability, T/C [10]: 38.1% | viability, T/C [11]: 33.4% | viability, T/C [12]: 29.9% | viability, T/C (second compound 0.316 µM, first compound 3.16 µM): 30.4% | viability, T/C (second compound 0.316 µM, first compound 10 µM): 23.1% | viability, T/C [13]: 33.8% | viability, T/C [14]: 29.8% | viability, T/C [15]: 27.6% | viability, T/C [16]: 27.8% | viability, T/C (second compound 1 µM, first compound 3.16 µM): 27.4% | viability, T/C (second compound 1 µM, first compound 10 µM): 25.9% | viability, T/C [17]: 28.3% | viability, T/C [18]: 28.4% | viability, T/C [19]: 28% | viability, T/C [20]: 23.4% | viability, T/C (second compound 3.16 µM, first compound 3.16 µM): 26.2% | viability, T/C (second compound 3.16 µM, first compound 10 µM): 23.2% | viability, T/C [21]: 22.8% | viability, T/C [22]: 21.2% | viability, T/C [23]: 19.5% | viability, T/C [24]: 18.5% | viability, T/C (second compound 10 µM, first compound 3.16 µM): 17.4% | viability, T/C (second compound 10 µM, first compound 10 µM): 15.4%

O=C(c1ccc(F)c(F)c1Nc1ccc(I)cc1F)N1CC(O)([C@@H]2CCCCN2)C1 + C#Cc1c(F)ccc2cc(O)cc(-c3ncc4c(N5CC6CCC(C5)N6)nc(OCC56CCCN5CC(F)C6)nc4c3F)c12
IC50 (second compound 0.0316 µM): 14.5 nM | IC50 (second compound 0.1 µM): 9.8 nM | IC50 (second compound 0.316 µM): < 3.16 nM | IC50 (second compound 1 µM): < 3.16 nM | IC50 (second compound 3.16 µM): < 3.16 nM | IC50 (second compound 10 µM): < 3.16 nM | viability, T/C (second compound 0.0316 µM, first compound 0.00316 µM): 71% | viability, T/C (second compound 0.0316 µM, first compound 0.01 µM): 55.9% | viability, T/C [1]: 37.7% | viability, T/C [2]: 31.2% | viability, T/C [3]: 29.6% | viability, T/C [4]: 24.4% | viability, T/C (second compound 0.1 µM, first compound 0.00316 µM): 70.6% | viability, T/C (second compound 0.1 µM, first compound 0.01 µM): 49.2% | viability, T/C [5]: 37% | viability, T/C [6]: 31% | viability, T/C [7]: 28.3% | viability, T/C [8]: 23.9% | viability, T/C (second compound 0.316 µM, first compound 0.00316 µM): 47.9% | viability, T/C (second compound 0.316 µM, first compound 0.01 µM): 44.9% | viability, T/C [9]: 31.9% | viability, T/C [10]: 29% | viability, T/C [11]: 30.5% | viability, T/C [12]: 21.6% | viability, T/C (second compound 1 µM, first compound 0.00316 µM): 33.8% | viability, T/C (second compound 1 µM, first compound 0.01 µM): 29.7% | viability, T/C [13]: 31.9% | viability, T/C [14]: 29.1% | viability, T/C [15]: 29.2% | viability, T/C [16]: 20.8% | viability, T/C (second compound 3.16 µM, first compound 0.00316 µM): 24.5% | viability, T/C (second compound 3.16 µM, first compound 0.01 µM): 28.5% | viability, T/C [17]: 27.4% | viability, T/C [18]: 25.7% | viability, T/C [19]: 21.9% | viability, T/C [20]: 19.1% | viability, T/C (second compound 10 µM, first compound 0.00316 µM): 22% | viability, T/C (second compound 10 µM, first compound 0.01 µM): 18.8% | viability, T/C [21]: 17.7% | viability, T/C [22]: 18.1% | viability, T/C [23]: 15.5% | viability, T/C [24]: 12.2%
